Molecules are shown by their SMILES.

From patent US20180105492A1, “COMPOUNDS DERIVED FROM 3-ALKYLAMINE-1H-INDOLYL ACRYLATE AND THEIR USE IN THE TREATMENT OF NEURODEGENERATIVE DISEASES” (FUNDACION PARA LA INVESTIGACION BIOMEDICA DEL HOSPITAL …, priority 2014, published 2018) come the findings set out here.

The subject of data set [1] is SH-SY5Y cells. Briefly: Neuroprotection against rotenone/oligomycin A, pre- and co-incubation model, MTT. The format is cell-based. The note with it: Homo sapiens, compound 1 μM pre-incubation 24 h and co-incubation 24 h with Rot/Olig (30/10 μM); for inhibition at 1 µM: read-out: % Protection; for viability at 1 µM: read-out: % Survival. As to the method: SH-SY5Y cells [ECACC 94030304], in 5 to 16 passage after defreezing were maintained in Eagle media modified by Dulbecco (DMEM) containing 15 non-essential amino acids and supplemented with 10% fetal bovine serum, 1 mM glutamine, 50 units/mL penicillin/streptomycin (obtained from GIBCO, Madrid, Spain). Cells were seeded in flasks containing supplemented media and were maintained in an incubator at 37° C. and 5% CO2. 1:4 passes were performed twice per week. For the experiments, cells were seeded in 24 well-plates at a density of 2×10^5 cells/well, or in 96 well-plates at a density of 8×10^4 cells/well. For cytotoxicity experiments, cells were treated with the compounds before confluence with DMEM media supplemented with fetal bovine serum 1%.
(§1) In order to assess cellular viability, we measured the metabolic reduction of 3-(4,5-Dimethylthiazol-2-yl)-2,5 diphenyltetrazolium bromide (MTT). MTT is an indirect assay to measure cellular viability. It is a colorimetric method based on the reduction of 3-(4,5-Dimethylthiazol-2-yl)-2,5 diphenyltetrazolium. This process is performed by the mitochondrial enzyme succinate-dehydrogenase present in metabolic active cells. Thus, the water-soluble yellow MTT (tetrazolium salt) is transformed into a insoluble purple compound (formazan). Quantity of living cells is directly proportional to the quantity of formazan (Mosmann, 1983, J Immunol Methods, 65: 55-63). […] Therefore, with this assay we can measure cellular surviving and proliferation and also, we can determine the cytotoxicity of potential neuroprotective compounds. In order to assess cellular viability in SH-SY5Y cell line, we added 30 μl/well of MTT (5 mg/mL) and after 2 h, medium was carefully removed to avoid losing the formazan and was diluted in 300 μL of DMSO. Afterwards, samples were transferred to a 96 well-plate and the absorbance was measured at 570 nm using a absorbance/fluorescence reader FluoStar optima®. Every MTT assay was performed in triplicates. Absorbance values obtained with the toxic alone were subtracted to the absorbance values obtained in basal conditions (without treatment). That result was considered as the 100% of cell death and the values obtained with the compounds in the presence of the toxic stimulus were normalized as percentages of that value. For determining the surviving percentage, those percentages of cell death were subtracted to 100.
Neuroprotection elicited by the compounds of the invention 1-16: The activation of Nrf2-ARE pathway by different compounds exerts neuroprotective effects against toxic models based on oxidative stress via the expression of cytoprotective genes. […] We evaluated the neuroprotective potential of the compounds using the human neuroblastoma cell line using the following cytotoxicity models: 1) oxidative stress induced by rotenone+oligomycin, both blockers of the electron transport chain as previously described (Halliwell, 1992, J Neurochem, 59: 1609-23, Newhouse y col., 2004, Toxicol Sci, 79: 137-46), and 2) cytotoxicity induced by the electrophilic compound Menadione. This compound produces oxidative stress after being metabolized by microsomal enzymes in the cell which produces hydroxyl radical and oxygen reactive species. As a consequence, there is a depolarization of mitochondrial membrane generating a release of apoptotic factors such as cytochrome c, and activating the caspase cascade (Loor y col., 2010, Free Radic Biol Med, 49: 1925-36, Chuang y col., 2002, Cancer Res, 62: 6246-54). Caspase 3 activation can produce the lysis of proteins and induce DNA fragmentation, leading to cell death (Gerasimenko y col., 2002, J Cell Sci, 115: 485-97).
In this model, a 24 h pre-incubation period was performed in presence of the compounds synthesized at a concentration of 1 μM. Thereafter, a 24 h co-incubation period was added, in presence of the compounds with rotenone/oligomycin A (30 μM/10 μM) mixture. After 24 h, cell viability was assessed by the MTT reduction method. […]

In data set [2] the test system is SH-SY5Y cells. Briefly: Toxicity in SH-SY5Y neuronal cell line, reduction of cell viability (MTT). It counts as cell-based. As for the experimental part: as §1, with “100. […]” for “100.”
In order to further study its safety profile, the effect of the derivatives on neuronal cells used for neuroprotection experiments, the SH-SY5Y human neuroblastoma cells, was also evaluated. Maintenance and culture methods of this cell line have been described above. For toxicity experiments, SH-SY5Y cells were plated in 96-well plates at the density of 6×10 ^4 cells/well. The experimental conditions were the same as those described for the toxicity study in HepG2 cells.
The results obtained are shown in Table 6 expressed as the lethal dose 50 (LD50), or needed concentration to reduce to 50% the viability of basal conditions (without treatment), measured by the MTT reduction method.

[3] abbreviates: 24 h incubation, MTT, concentration reducing viability to 50% of basal.

As for `CC(=O)NCCc1c[nH]c2ccc(OC(=O)/C=C/c3ccc(Cl)cc3)cc12` [Compound 11, 3-(2-acetamidoethyl)-1H-indol-5-yl (E)-3-(4-chlorophenyl)acrylate], in the data set with SH-SY5Y cells [1], the inhibition at 1 µM worked out at 28.4% and the viability at 1 µM was determined as 70.2 ± 3.7%. Moreover, the “SH-SY5Y LD50” value in the data set with SH-SY5Y cells [2] (setting [3]) is greater than 100 µM.

As to `C/C=C/C(=O)Oc1ccc2[nH]cc(CCNC(C)=O)c2c1` [Compound 1, 3-(2-acetamidoethyl)-1H-indol-5-yl (E)-2-butenoate], in the data set on SH-SY5Y cells [1], the inhibition at 1 µM was 28.8% and the viability at 1 µM turned out to be 77 ± 1.3%. Further, the “SH-SY5Y LD50” value in the data set on SH-SY5Y cells [2] (setting [3]) is greater than 100 µM.

As to `COc1cccc(/C=C/C(=O)Oc2ccc3[nH]cc(CCNC(C)=O)c3c2)c1` [Compound 5, 3-(2-acetamidoethyl)-1H-indol-5-yl (E)-3-(3-methoxyphenyl)acrylate], in the data set with SH-SY5Y cells [1], the inhibition at 1 µM was found to be 57.6% and the viability at 1 µM amounted to 78.7 ± 4.37%. Further, the “SH-SY5Y LD50” value in the data set with SH-SY5Y cells [2] (setting [3]) stood at 83 µM.

Turning to `COc1ccccc1/C=C/C(=O)Oc1ccc2[nH]cc(CCNC(C)=O)c2c1` [Compound 4, 3-(2-acetamidoethyl)-1H-indol-5-yl (E)-3-(2-methoxyphenyl)acrylate], in the data set with SH-SY5Y cells [1], the inhibition at 1 µM stood at 28.1% and the viability at 1 µM was 69.9 ± 4.17%. Moreover, the “SH-SY5Y LD50” value in the data set with SH-SY5Y cells [2] (setting [3]) was found to be 64 µM.

On to `CC(=O)NCCc1c[nH]c2ccc(OC(=O)/C=C/c3ccc(Cl)c(Cl)c3)cc12` [Compound 12, 3-(2-acetamidoethyl)-1H-indol-5-yl (E)-3-(3,4-dichlorophenyl)acrylate], for which, in the data set with SH-SY5Y cells [1], the inhibition at 1 µM was determined as 27.8% and the viability at 1 µM was determined as 69.9 ± 3.47%. Moreover, the “SH-SY5Y LD50” value in the data set with SH-SY5Y cells [2] (setting [3]) was found to be 51 µM.

Regarding `CC(=O)NCCc1c[nH]c2ccc(OC(=O)/C=C/c3ccc(C(F)(F)F)cc3)cc12` [Compound 15, 3-(2-acetamidoethyl)-1H-indol-5-yl (E)-3-(4-(trifluoromethyl)phenyl)acrylate], in the data set with SH-SY5Y cells [1], the inhibition at 1 µM worked out at 47.6% and the viability at 1 µM came to 73 ± 2.99%. Further, in the data set on SH-SY5Y cells [2] (setting [3]), the “SH-SY5Y LD50” value amounted to 70 µM.

With `CC(=O)NCCc1c[nH]c2ccc(OC(=O)/C=C/c3ccccc3C(F)(F)F)cc12` [Compound 13, 3-(2-acetamidoethyl)-1H-indol-5-yl (E)-3-(2-(trifluoromethyl)phenyl)acrylate], in the data set with SH-SY5Y cells [1], the inhibition at 1 µM came out at 50.2% and the viability at 1 µM is 73.8 ± 4.55%. Moreover, in the data set with SH-SY5Y cells [2] (setting [3]), the “SH-SY5Y LD50” value was greater than 100 µM.

In the case of `COc1ccc(/C=C/C(=O)Oc2ccc3[nH]cc(CCNC(C)=O)c3c2)cc1` [Compound 6, 3-(2-acetamidoethyl)-1H-indol-5-yl (E)-3-(4-methoxyphenyl)acrylate], in the data set on SH-SY5Y cells [1], the inhibition at 1 µM was 44.1% and the viability at 1 µM is 71.6 ± 3.94%. In addition, the “SH-SY5Y LD50” value in the data set on SH-SY5Y cells [2] (setting [3]) is 60 µM.

Regarding `CC(=O)NCCc1c[nH]c2ccc(OC(=O)/C=C/c3ccc(C)cc3)cc12` [Compound 3, 3-(2-acetamidoethyl)-1H-indol-5-yl (E)-3-(4-methylphenyl)acrylate], in the data set on SH-SY5Y cells [1], the inhibition at 1 µM came to 55.1% and the viability at 1 µM was found to be 76.4 ± 3.89%. For the same compound, in the data set with SH-SY5Y cells [2] (setting [3]), the “SH-SY5Y LD50” value is 80 µM.

Take `CC(=O)NCCc1c[nH]c2ccc(OC(=O)/C=C/c3ccc(O)cc3)cc12` [Compound 7, 3-(2-acetamidoethyl)-1H-indol-5-yl (E)-3-(4-hydroxyphenyl)acrylate]: in the data set with SH-SY5Y cells [1], the inhibition at 1 µM came out at 39.8% and the viability at 1 µM came to 79.7 ± 2.37%. In addition, in the data set on SH-SY5Y cells [2] (setting [3]), the “SH-SY5Y LD50” value is greater than 100 µM.

For `COc1ccc2[nH]cc(CCNC(C)=O)c2c1` [Melatonin, reference compound], in the data set on SH-SY5Y cells [1], the inhibition at 1 µM came to 31.1% and the viability at 1 µM was found to be 68.3 ± 4.27%. Moreover, the “SH-SY5Y LD50” value in the data set with SH-SY5Y cells [2] (human, 24 h) was greater than 100 µM.

Regarding `CC(=O)NCCc1c[nH]c2ccc(OC(=O)/C=C/c3ccc([N+](=O)[O-])cc3)cc12` [Compound 16, 3-(2-acetamidoethyl)-1H-indol-5-yl (E)-3-(4-nitrophenyl)acrylate], in the data set with SH-SY5Y cells [1], the inhibition at 1 µM came to 29.5% and the viability at 1 µM amounted to 76.5 ± 2.18%. In addition, in the data set on SH-SY5Y cells [2] (setting [3]), the “SH-SY5Y LD50” value was greater than 100 µM.

Consider `CC(=O)NCCc1c[nH]c2ccc(OC(=O)/C=C/c3ccccc3)cc12` [Compound 2, 3-(2-acetamidoethyl)-1H-indol-5-yl cinnamate], for which, in the data set on SH-SY5Y cells [1], the inhibition at 1 µM was found to be 48% and the viability at 1 µM was found to be 73.7 ± 4.65%. Moreover, the “SH-SY5Y LD50” value with SH-SY5Y cells [2] (setting [3]) was greater than 100 µM.

As for `CC(=O)NCCc1c[nH]c2ccc(OC(=O)/C=C/c3cccc(C(F)(F)F)c3)cc12` [Compound 14, 3-(2-acetamidoethyl)-1H-indol-5-yl (E)-3-(3-(trifluoromethyl)phenyl)acrylate], in the data set on SH-SY5Y cells [1], the inhibition at 1 µM was 45.9% and the viability at 1 µM was determined as 72.6 ± 3.75%. For the same compound, in the data set with SH-SY5Y cells [2] (setting [3]), the “SH-SY5Y LD50” value is greater than 100 µM.

As to `CC(=O)NCCc1c[nH]c2ccc(OC(=O)/C=C/c3ccc(Br)cc3)cc12` [Compound 10, 3-(2-acetamidoethyl)-1H-indol-5-yl (E)-3-(4-bromophenyl)acrylate], in the data set on SH-SY5Y cells [1], the inhibition at 1 µM was found to be 40.8% and the viability at 1 µM is 70.4 ± 2.21%. Moreover, in the data set with SH-SY5Y cells [2] (setting [3]), the “SH-SY5Y LD50” value was 60 µM.

Consider `CC(=O)NCCc1c[nH]c2ccc(OC(=O)/C=C/c3ccc(F)cc3)cc12` [Compound 9, 3-(2-acetamidoethyl)-1H-indol-5-yl (E)-3-(4-fluorophenyl)acrylate], for which, in the data set with SH-SY5Y cells [1], the inhibition at 1 µM turned out to be 40.5% and the viability at 1 µM was determined as 69.6 ± 2.63%. In the data set on SH-SY5Y cells [2] (setting [3]), the “SH-SY5Y LD50” value is greater than 100 µM.

Take `COc1cc(/C=C/C(=O)Oc2ccc3[nH]cc(CCNC(C)=O)c3c2)ccc1O` [Compound 8, 3-(2-acetamidoethyl)-1H-indol-5-yl (E)-3-(4-hydroxy-3-methoxyphenyl)acrylate]: in the data set with SH-SY5Y cells [1], the inhibition at 1 µM was found to be 41.7% and the viability at 1 µM was found to be 81.1 ± 1.71%. Also, the “SH-SY5Y LD50” value in the data set with SH-SY5Y cells [2] (setting [3]) was greater than 100 µM.
